According to patent US10597388B2, “Pyridazinone herbicides” (FMC CORPORATION, priority 2014, dated 2020):
Where two headings read alike, the source gives them in different places.

Tests used:
Type in all cases: in vivo
[1] = tested on: pigweed (Amaranthus retroflexus); experiment: Test C greenhouse herbicide test, pre- and postemergence
How it was run: (§1)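 Two application timings: at sowing into a soil/sand blend, and on 2–18 cm seedlings in peat-vermiculite potting mix. A non-phytotoxic, surfactant-containing solvent carried the compounds. Plants were compared with controls and rated visually on 0–100 after 13–15 d.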

[2] = tested on: nutsedge, yellow (yellow nutsedge, Cyperus esculentus); experiment: as above; settings: Preemergence; for Plant response rating, Nutsedge, Yellow: scale 0 to 100, 0 is no effect, 100 is complete control
How it was run: as §1

[3] = tested on: waterhemp (common waterhemp, Amaranthus rudis); experiment: as above
How it was run: as §1

[4] = tested on: blackgrass (Alopecurus myosuroides); experiment: as above
How it was run: as §1

corn (Zea mays) [5] = experiment: as above
How it was run: as §1

[6] = tested on: velvetleaf (Abutilon theophrasti); experiment: as above
How it was run: as §1

soybean (Glycine max) = experiment: as above
How it was run: as §1

[7] = tested on: foxtail, giant (giant foxtail, Setaria faberii); experiment: Test A greenhouse herbicide test, pre- and postemergence; settings: Setaria faberi, 240 h; for pest or weed control at 1000 g/ha: 1000 g ai/ha; for pest or weed control at 1000 g/ha / pest or weed control at 500 g/ha: 0 to 100 scale; for pest or weed control at 125 g/ha: 125 g ai/ha; for pest or weed control at 500 g/ha: 500 g ai/ha
How it was run: (§2)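 Seeds sown in loam–sand blend got a preemergence directed soil spray of compound in non-phytotoxic solvent with surfactant. Postemergence treatment was given at 2–10 cm, one- to two-leaf stage. After ~10 d in greenhouse, injury was rated visually vs untreated controls, 0 (no effect) to 100 (complete control).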

corn (Zea mays) [8] = experiment: as above; settings: Zea mays, 240 h; for Corn plant response rating (crop injury, 0 = no effect, 100 = complete kill) at 125 g/ha: visual rating after approx. 10 d, 0 to 100 scale (0 no effect, 100 complete control)
How it was run: as §2

[9] = tested on: wheat (Triticum aestivum); experiment: as above; settings: Triticum aestivum, 240 h; for plant injury at 1000 g/ha: 1000 g ai/ha; for plant injury at 1000 g/ha / plant injury at 500 g/ha: 0 to 100 scale; for plant injury at 125 g/ha: 125 g ai/ha; for plant injury at 500 g/ha: 500 g ai/ha
How it was run: as §2

[10] = tested on: ryegrass, Italian (Italian ryegrass, Lolium multiflorum); experiment: as above; settings: Lolium multiflorum, 240 h; for pest or weed control at 125 g/ha: 125 g ai/ha; for pest or weed control at 500 g/ha: 500 g ai/ha, 0 to 100 scale
How it was run: as §2

[11] = Postemergence, 31 g ai/ha, 0 to 100 scale (0 no effect, 100 complete control)
[12] = Postemergence, 125 g ai/ha, scale 0 to 100, 0 is no effect, 100 is complete control
[13] = Postemergence, 250 g ai/ha, scale 0 to 100, 0 no effect, 100 complete control, 13 to 15 d
[14] = Preemergence, 31 g ai/ha, scale 0 to 100, 0 is no effect, 100 is complete control
[15] = Preemergence, 62 g ai/ha, scale 0 to 100, 0 is no effect, 100 is complete control
[16] = Preemergence, 125 g ai/ha, scale 0 to 100, 0 is no effect, 100 is complete control
[17] = Preemergence, 250 g ai/ha, scale 0 to 100, 0 no effect, 100 complete control
[18] = postemergence, 62 g ai/ha, scale 0 to 100, 0 no effect, 100 complete control
[19] = post-emergence, Postemergence, 0 is no effect, 100 is complete control, read-out: Foxtail, Giant plant response rating
[20] = pre-emergence, Preemergence, 0 no effect, 100 complete control, read-out: Plant response rating, Foxtail, Giant
[21] = post-emergence, Postemergence, 0 is no effect, 100 is complete control, read-out: Wheat plant response rating
[22] = pre-emergence, Preemergence, 0 no effect, 100 complete control, read-out: Plant response rating, Wheat
[23] = post-emergence, Postemergence, visual rating after approx. 10 d, 0 to 100 scale (0 no effect, 100 complete control), read-out: Plant response rating, Foxtail, Giant
[24] = pre-emergence, Preemergence, 0 to 100 scale where 0 is no effect and 100 is complete control, read-out: Foxtail, Giant plant response rating
[25] = post-emergence, Postemergence, 125 g ai/ha
[26] = post-emergence, Postemergence, 500 g ai/ha, 0 to 100 scale, 0 is no effect, 100 is complete control, read-out: Corn plant response rating
[27] = post-emergence, Postemergence, visual rating after approx. 10 d, 0 to 100 scale (0 no effect, 100 complete control), read-out: Plant response rating, Wheat
[28] = post-emergence, Postemergence, visual rating after approx. 10 d, 0 to 100 scale (0 no effect, 100 complete control), read-out: Plant response rating, Ryegrass, Italian
[29] = post-emergence, Postemergence, 0 is no effect, 100 is complete control, read-out: Ryegrass, Italian plant response rating
[30] = pre-emergence, Preemergence, 0 to 100 scale where 0 is no effect and 100 is complete control, read-out: Ryegrass, Italian plant response rating
[31] = pre-emergence, Preemergence, 0 no effect, 100 complete control, read-out: Plant response rating, Ryegrass, Italian

CCc1oc2ccc(C)cc2c1-c1c(O)c(C)nn(C)c1=O [Compound 10, 4-(2-ethyl-5-methyl-3-benzofuranyl)-5-hydroxy-2,6-dimethyl-3(2H)-pyridazinone]
Pigweed plant response rating [1, 11]: 55
Plant response rating, Pigweed [1, 12]: 70
Plant response rating, Pigweed [1, 13]: 95
Plant response rating, Pigweed [1, 14]: 0
Plant response rating, Pigweed [1, 15]: 0
Plant response rating, Pigweed [1, 16]: 10
Pigweed plant response rating [1, 17]: 30
Pigweed plant response rating [1, 18]: 60
Plant response rating, Nutsedge, Yellow ([2]; 31 g ai/ha): 0
Plant response rating, Nutsedge, Yellow ([2]; 62 g ai/ha): 0
Plant response rating, Nutsedge, Yellow ([2]; 125 g ai/ha): 0
Nutsedge, Yellow plant response rating ([2]; 250 g ai/ha, scale 0 to 100, 0 no effect, 100 complete control): 0
Waterhemp plant response rating [3, 11]: 40
Plant response rating, Waterhemp [3, 12]: 50
Plant response rating, Waterhemp [3, 13]: 90
Plant response rating, Waterhemp [3, 15]: 0
Plant response rating, Waterhemp [3, 16]: 100
Waterhemp plant response rating [3, 17]: 90
Waterhemp plant response rating [3, 18]: 45
Blackgrass plant response rating [4, 11]: 0
Plant response rating, Blackgrass [4, 12]: 10
Plant response rating, Blackgrass [4, 13]: 15
Plant response rating, Blackgrass [4, 14]: 0
Plant response rating, Blackgrass [4, 15]: 0
Plant response rating, Blackgrass [4, 16]: 0
Blackgrass plant response rating [4, 17]: 0
Blackgrass plant response rating [4, 18]: 0
Corn plant response rating (corn (Zea mays) [5]; [11]): 0
Plant response rating, Corn (corn (Zea mays) [5]; [12]): 5
Plant response rating, Corn (corn (Zea mays) [5]; [13]): 5
Plant response rating, Corn (corn (Zea mays) [5]; [14]): 0
Plant response rating, Corn (corn (Zea mays) [5]; [15]): 0
Plant response rating, Corn (corn (Zea mays) [5]; [16]): 0
Corn plant response rating (corn (Zea mays) [5]; [17]): 5
Corn plant response rating (corn (Zea mays) [5]; [18]): 0
Velvetleaf plant response rating [6, 11]: 40
Plant response rating, Velvetleaf [6, 12]: 40
Plant response rating, Velvetleaf [6, 13]: 70
Plant response rating, Velvetleaf [6, 15]: 0
Plant response rating, Velvetleaf [6, 16]: 10
Velvetleaf plant response rating [6, 17]: 50
Velvetleaf plant response rating [6, 18]: 45
Soybean plant response rating (soybean (Glycine max); [11]): 0
Plant response rating, Soybean (soybean (Glycine max); [12]): 0
Plant response rating, Soybean (soybean (Glycine max); [13]): 0
Plant response rating, Soybean (soybean (Glycine max); [15]): 0
Plant response rating, Soybean (soybean (Glycine max); [16]): 0
Soybean plant response rating (soybean (Glycine max); [17]): 0
Soybean plant response rating (soybean (Glycine max); [18]): 0
pest or weed control at 1000 g/ha [7, 19]: 80%
pest or weed control at 1000 g/ha [7, 20]: 100%
plant injury at 1000 g/ha (corn (Zea mays) [8]; post-emergence, Postemergence, 1000 g ai/ha, 0 to 100 scale, 0 is no effect, 100 is complete control, read-out: Corn plant response rating): 20%
Corn plant response rating (crop injury, 0 = no effect, 100 = complete kill) at 1000 g/ha (corn (Zea mays) [8]; pre-emergence, Preemergence, 1000 g ai/ha, 0 to 100 scale, 0 no effect, 100 complete control): 10%
plant injury at 1000 g/ha [9, 21]: 0%
plant injury at 1000 g/ha [9, 22]: 0%

Cc1nn(C)c(=O)c(-c2c(C)oc3cccc(C)c23)c1O [Compound 8, 4-(2,4-dimethyl-3-benzofuranyl)-5-hydroxy-2,6-dimethyl-3(2H)-pyridazinone]
pest or weed control at 125 g/ha [7, 23]: 0%
pest or weed control at 500 g/ha [7, 19]: 30%
pest or weed control at 125 g/ha [7, 24]: 40%
pest or weed control at 500 g/ha [7, 20]: 60%
Corn plant response rating (crop injury, 0 = no effect, 100 = complete kill) at 125 g/ha (corn (Zea mays) [8]; [25]): 0%
plant injury at 500 g/ha (corn (Zea mays) [8]; [26]): 0%
plant injury at 125 g/ha (corn (Zea mays) [8]; pre-emergence, Preemergence, 125 g ai/ha, 0 to 100 scale where 0 is no effect and 100 is complete control, read-out: Corn plant response rating): 0%
Corn plant response rating (crop injury, 0 = no effect, 100 = complete kill) at 500 g/ha (corn (Zea mays) [8]; pre-emergence, Preemergence, 500 g ai/ha, 0 to 100 scale, 0 no effect, 100 complete control): 0%
plant injury at 125 g/ha [9, 27]: 0%
plant injury at 500 g/ha [9, 21]: 0%
plant injury at 125 g/ha ([9]; pre-emergence, Preemergence, 0 to 100 scale where 0 is no effect and 100 is complete control, read-out: Wheat plant response rating): 0%
plant injury at 500 g/ha [9, 22]: 0%

Cc1cc(C)c2oc(C)c(-c3c(OC(=O)C(C)(C)C)c(C)nn(C)c3=O)c2c1 [Compound 18, 1,6-dihydro-1,3-dimethyl-6-oxo-5-(2,5,7-trimethyl-3-benzofuranyl)-4-pyridazinyl 2,2-dimethylpropanoate]
pest or weed control at 125 g/ha [7, 23]: 0%
pest or weed control at 500 g/ha [7, 19]: 20%
pest or weed control at 125 g/ha [7, 24]: 0%
pest or weed control at 500 g/ha [7, 20]: 0%
Corn plant response rating (crop injury, 0 = no effect, 100 = complete kill) at 125 g/ha (corn (Zea mays) [8]; [25]): 0%
plant injury at 500 g/ha (corn (Zea mays) [8]; [26]): 20%
pest or weed control at 125 g/ha [10, 28]: 10%
pest or weed control at 500 g/ha [10, 29]: 50%
pest or weed control at 125 g/ha [10, 30]: 0%
pest or weed control at 500 g/ha [10, 31]: 20%
plant injury at 125 g/ha [9, 27]: 0%
plant injury at 500 g/ha [9, 21]: 0%

Cc1ccc2oc(C)c(-c3c(OC(=O)C(C)(C)C)c(C)nn(C)c3=O)c2c1 [Compound 17, 5-(2,5-dimethyl-3-benzofuranyl)-1,6-dihydro-1,3-dimethyl-6-oxo-4-pyridazinyl 2,2-dimethylpropanoate]
pest or weed control at 125 g/ha [7, 23]: 0%
pest or weed control at 500 g/ha [7, 19]: 0%
pest or weed control at 125 g/ha [7, 24]: 0%
pest or weed control at 500 g/ha [7, 20]: 0%
Corn plant response rating (crop injury, 0 = no effect, 100 = complete kill) at 125 g/ha (corn (Zea mays) [8]; [25]): 0%
plant injury at 500 g/ha (corn (Zea mays) [8]; [26]): 0%
pest or weed control at 125 g/ha [10, 28]: 50%
pest or weed control at 500 g/ha [10, 29]: 60%
pest or weed control at 125 g/ha [10, 30]: 10%
pest or weed control at 500 g/ha [10, 31]: 40%
plant injury at 125 g/ha [9, 27]: 0%
plant injury at 500 g/ha [9, 21]: 0%
